Experimental data: US12714675B2, “Solid dosage form production” (UNIVERSITY OF LANCASHIRE, priority 2016, dated 2026)

Test: optimization of highly concentrated dipyridamole solution for liquid capsule feed (solubility in solvent systems)
Type: physicochemical
Details: drug solution in PEG 400
Method: A model drug, dipyridamole, was chosen to test the suitability of this system to provide immediate and extended drug release. Its fluoresce colour and ease of detection allows focusing on the development process. It was decided that the drug solution PEG 400 (10 mg/ml) is the maximum concentration that can be readily prepared.

- maximum concentration that can be readily prepared: 10 mg/mL
Compound: OCCN(CCO)c1nc(N2CCCCC2)c2nc(N(CCO)CCO)nc(N3CCCCC3)c2n1 [dipyridamole]
